Laboratory results: patent publication US9757424B2, “Compositions and methods of treating gliomas” (BioMed Valley Discoveries, Inc., priority 2011, dated 2017)
“And” between values parts separate entries of the source, which are not always exact repeats. Identical values can stand only once. Like-named read-outs stand apart in the source and are kept apart here.

Tests used:
[1] = test system: U87MG glioma human tumor cell line
Description: Compounds are assessed for combination efficacy in a tumor fragment xenograft model generated by serial passage of a commonly available U87MG glioma human tumor cell line. Experimental cohorts are derived by seeding 8-12 week old, female HRLN nu/nu mice with 1 mm^3 sub-fragments of tumors maintained through serial passage in living xenografts. […] Experimental compounds are dosed once daily, in a dose volume less than or equal to 10 mL/kg, in varying vehicle resuspensions and varied routes (see table 7 below). All animals are assessed periodically for body weight, as well as tumor burden using standard protocols with mechanical calipers.
Experimental compounds are scored for efficacy using various data analyses, including manual growth curve inspection, comparison of mean time-to-tumor burden (analogous to C/T analysis), and time-to-event survival analysis by tumor burden.

[2] = test system: U87MG human glioblastoma xenografts
Description: An untreated group served as the control group for efficacy analysis. Dosing was initiated on Day 1, except where indicated otherwise, and tumors were measured twice each week until the study was ended on Day 46. Animals were monitored individually and each mouse was euthanized for endpoint when its tumor attained a volume of 2000 mm^3 (about 2 grams) or on the final day (Day 46), whichever came first.
Treatment response was determined from an analysis of percent tumor growth delay (% TGD), defined as the percent increase in the median time to endpoint (TTE) in treated versus control mice; by logrank significance of differences in survival among treatment groups; and by regression responses. Plots of group mean tumor growth were also considered. Treatment tolerability was assessed by body weight measurements and frequent observation for clinical symptoms of treatment-related side effects.
Xenografts were initiated with U87MG human glioblastomas maintained at Piedmont by serial subcutaneous transplantation in athymic nude mice. Each test mouse received a U87MG tumor fragment (1 mm^3) implanted subcutaneously in the right flank, and the growth of tumors was monitored as the average size approached the target range of 80 to 120 mm^3. […] Tumor volume was calculated using the formula: Tumor Volume (mm^3)=w^2×l where w=width and l=length in mm of a U87MG tumor. Tumor weight may be estimated with the assumption that 1 mg is equivalent to 1 mm^3 of tumor volume.
On Day 1 of the study, mice were sorted into six groups each consisting of ten mice, and dosing was initiated according to the treatment plan summarized in Table 1. Group 1 mice were not treated and served as controls for calculation of % TGD. […] All doses were scaled to the body weights of the individual animals.
Tumors were measured twice each week using calipers. Animals were monitored individually, and each mouse was euthanized when its tumor reached the endpoint size of 2000 mm^3 or at the conclusion of the study (Day 46), whichever came first.
Animals were monitored for regression responses. Treatment may cause partial regression (PR) or complete regression (CR) of the tumor in an animal. In a PR response, the tumor volume is 50% or less of its Day 1 volume for three consecutive measurements during the course of the study, and equal to or greater than 13.5 mm^3 for one or more of these three measurements. In a CR response, the tumor volume is less than 13.5 mm^3 for three consecutive measurements during the course of the study. An animal with a CR response at the termination of a study is additionally classified as a tumor-free survivor (TFS).
Animals were weighed daily on Days 1-5, and then twice weekly until the study was completed. […] Acceptable toxicity was defined as a group mean body-weight loss of less than 20% during the study and not more than one treatment-related (TR) death among ten treated animals. Any dosing regimen that results in greater toxicity is considered above the maximum tolerated dose (MTD). […] A death is classified as NTR if there is no evidence that death was related to treatment side effects. NTR deaths may be further characterized based on cause of death. A death may be classified as NTRa if it resulted from an accident or human error. […] A death may be classified as NTRu if the cause of death is unknown and there is no available evidence of death related to treatment side effects, metastasis, accident or human error, although death due to treatment side effects cannot be excluded.

U87MG tumor fragments = assay: animal or person; conditions: for Regression CR (complete regression) / Regression PR (partial regression): number of animals
Description: HRLN female nu/nu mice were seeded with 1 mm^3 U87MG tumor fragments subcutaneously in the flank. Final caliper and body weight measurements were taken on the last day of the study.
All animals were assessed periodically for body weight, as well as tumor burden, using standard protocols with mechanical calipers. […] Dosing was stopped for any group with two measurements of mean body weight loss of greater than 20%. The group was not euthanized, and recovery was allowed. Within a group with greater than 20% weight loss, individuals reaching the individual body weight loss endpoint were euthanized. If the group body weight loss was recovered, dosing may resume. […] Dosing was then resumed with the candidate agent at half the original dose. Animals were monitored as a group. The endpoint of the experiment was a mean tumor weight in control group (or group 1) of 2000 mm^3 or 60 days, whichever comes first. When the endpoint was reached, all the animals were euthanized.

[3] = test system: U87MG human glioblastoma xenografts; assay: U87MG human glioblastoma xenograft, tumor growth delay, 49-day study (Example 2);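 further: female athymic nude mice with subcutaneous tumors, groups of ten, tumors measured twice weekly, endpoint at 2000 mm^3 tumor volume or Day 49, treated compared with control mice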
Description: The experiment consisted of groups (n=10) of female athymic nude mice bearing subcutaneous U87MG xenografts (75-144 mm^3) on Day 1. Candesartan was evaluated as monotherapies at dosages of 1, 5, 10 and 50 mg/kg administered intraperitoneally (i.p.) on a once daily for twenty-one days (qd×21) schedule. […] Dosing was initiated on Day 1, and tumors were measured twice each week until the study was ended on Day 49. Animals were monitored individually and each mouse was euthanized for endpoint when its tumor attained a volume of 2000 mm^3 (about 2 grams) or on the final day (Day 49), whichever came first. Tumor samples were collected at endpoint, and histopathology analyses were performed.
The time to endpoint (TTE) was calculated for each mouse. Treatment outcome was determined from percent tumor growth delay (% TGD), defined as the percent increase in median TTE of treated versus control mice, with differences in the TTE values between groups deemed statistically significant at P 0.05 using logrank survival analysis. Animals were also monitored for partial regression (PR) and complete regression (CR) responses. Treatment tolerability was assessed by body weight measurements and frequent observation for signs of treatment-related (TR) toxicity.
Treatment response was determined from an analysis of percent tumor growth delay (% TGD), defined as the percent increase in the median time to endpoint (TTE) in treated versus control mice; by logrank significance of differences in survival among treatment groups; and by regression responses. Plots of group mean tumor growth were also considered. Treatment tolerability was assessed by body weight measurements and frequent observation for clinical symptoms of treatment-related (TR) side effects.
Xenografts were initiated with U87MG human glioblastomas (Piedmont Research Center, Morrisville, N.C.) by serial subcutaneous transplantation in athymic nude mice. Each test mouse received a U87MG tumor fragment (1 mm^3) implanted subcutaneously in the right flank, and the growth of tumors was monitored as the average size approached the target range of 80 to 120 mm^3. […] Tumor volume was calculated using the formula: Tumor Volume (mm^3)=w^2×l/2 where w=width and l=length in mm of a U87MG tumor. Tumor weight may be estimated with the assumption that 1 mg is equivalent to 1 mm^3 of tumor volume. Therapeutic Agents
Doses of valsartan and candesartan were each formulated weekly, and were stored at 4° C. Valsartan dosing solutions were formulated at concentrations of 15 and 3 mg/mL to yield the desired 150 and 30 mg/kg dosages, respectively, in a dosing volume of 0.2 mL per 20 grams body weight (10 mL/kg). The required amount of valsartan powder for the 15 mg/mL solution was suspended in sterile saline, then dissolved with 0.1 N NaOH and pH adjusted to 7.4 with 0.1 N HCl. The 3 mg/mL valsartan dosing solution was prepared by diluting an aliquot of the 15 mg/mL valsartan solution with sterile saline. Candesartan doses were formulated in 0.5% carboxymethyl cellulose (CMC) in deionized water at concentrations of 5, 1, 0.5 and 0.1 mg/mL to yield the desired 50, 10, 5 and 1 mg/kg dosages, respectively, in a dosing volume of 10 mL/kg.
Each test agent was administered intraperitoneally (i.p.) once daily for twenty-one days (qd×21), unless otherwise indicated.
Group 1 was not treated and served as the control group for calculation of % TGD. […] Groups 4-7 received candesartan at 50, 10, 5 or 1 mg/kg, respectively. […] All doses were scaled to the body weights of the individual animals.
Tumors were measured twice each week using calipers.

[4] = test system: U87MG human glioblastomas; assay: U87MG human glioblastoma xenograft in nude mice, tumor growth inhibition Day 22 (Example 1)
Description: Each test mouse received a U87MG tumor fragment of the size 1 mm^3. […] Body weight and tumor size were monitored.
It was administered at either 5 mg/kg orally (p.o.) per day or 100 mg/kg (p.o.) per day, once daily from day 1 to day 5 of the treatment (qd×5). Candesartan in 0.5% carboxymethyl cellulose was dissolved in deionized water and administered intraperitoneally (i.p.) at the dose of 10 mg/kg once daily from day 1 to day 21 (qd×21).

[5] = Day 1, temozolomide 100 mg/kg p.o. qdx5
[6] = Day 4, temozolomide 100 mg/kg p.o. qdx5
[7] = Day 7, temozolomide 100 mg/kg p.o. qdx5
[8] = Day 11, temozolomide 100 mg/kg p.o. qdx5
[9] = Day 14, temozolomide 100 mg/kg p.o. qdx5
[10] = Day 18, temozolomide 100 mg/kg p.o. qdx5
[11] = Day 21, temozolomide 100 mg/kg p.o. qdx5
[12] = Day 25, temozolomide 100 mg/kg p.o. qdx5
[13] = Day 28, temozolomide 100 mg/kg p.o. qdx5
[14] = temozolomide 100 mg/kg po qd x 5
[15] = Group 2: temozolomide 5 mg/kg po qd x 5
[16] = Group 6: temozolomide 100 mg/kg po qd x 5
[17] = Group 1: temozolomide 5 po qd x 5 alone
[18] = Group 1: temozolomide 5 po qd x 5 alone, n=10
[19] = Group 19: temozolomide 100 po qd x 5 alone
[20] = Group 19: temozolomide 100 po qd x 5 alone, n=8
[21] = Group 2: temozolomide 100 mg/kg po qd x 5
[22] = Group 3: temozolomide 5 mg/kg po qd x 5
[23] = temozolomide 100 mg/kg p.o. qdx5

Cn1nnc2c(C(N)=O)ncn2c1=O [Temozolomide, temozolomide]
TV, group Mean ([1]; Day 1, temozolomide 5 mg/kg po qd x 5): 111.2 mm^3 | TV, group Mean [1, 5]: 110.7 mm^3 | TV, individual mice [1, 5]: 88 mm^3 and 108 mm^3 | TV, group Mean ([1]; Day 4, temozolomide 5 mg/kg po qd x 5): 222.2 mm^3 | TV, group Mean [1, 6]: 182.8 mm^3 | TV, individual mice [1, 6]: 144 mm^3 and 172 mm^3 | TV, group Mean ([1]; Day 7, temozolomide 5 mg/kg po qd x 5): 439.1 mm^3 | TV, group Mean [1, 7]: 185 mm^3 | TV, individual mice [1, 7]: 144 mm^3 and 196 mm^3 | TV, group Mean ([1]; Day 11, temozolomide 5 mg/kg po qd x 5): 599.1 mm^3 | TV, group Mean [1, 8]: 215.2 mm^3 | TV, individual mice [1, 8]: 100 mm^3 and 256 mm^3 | TV, group Mean ([1]; Day 14, temozolomide 5 mg/kg po qd x 5): 720.4 mm^3 | TV, group Mean [1, 9]: 221.5 mm^3 | TV, individual mice [1, 9]: 144 mm^3 | TV, group Mean ([1]; Day 18, temozolomide 5 mg/kg po qd x 5): 852.1 mm^3 | TV, group Mean [1, 10]: 140.6 mm^3 | TV, individual mice [1, 10]: 88 mm^3 | TV, group Mean ([1]; Day 21, temozolomide 5 mg/kg po qd x 5): 1058.6 mm^3 | TV, group Mean [1, 11]: 99.1 mm^3 | TV, individual mice [1, 11]: 75 mm^3 | TV, group Mean ([1]; Day 25, temozolomide 5 mg/kg po qd x 5): 1795.6 mm^3 | TV, group Mean [1, 12]: 98.4 mm^3 | TV, individual mice [1, 12]: 88 mm^3 | TV, group Mean ([1]; Day 28, temozolomide 5 mg/kg po qd x 5): 1890.8 mm^3 | TV, group Mean [1, 13]: 95 mm^3 | TV, individual mice [1, 13]: 144 mm^3 | Deaths NTR ([1]; temozolomide 5 mg/kg po qd x 5): 0 | Deaths TR ([1]; temozolomide 5 mg/kg po qd x 5): 0 | MTV (n) Day 25 (median tumor volume) ([1]; temozolomide 5 mg/kg po qd x 5): 1180 mm^3 | Regressions CR ([1]; temozolomide 5 mg/kg po qd x 5): 0 | Regressions PR ([1]; temozolomide 5 mg/kg po qd x 5): 0 | Deaths NTR [1, 14]: 0 | Deaths TR [1, 14]: 0 | MTV (n) Day 25 (median tumor volume) [1, 14]: 88 mm^3 | Regressions CR [1, 14]: 0 | Regressions PR [1, 14]: 0 | % TGI ([1]; temozolomide 100 mg/kg po qd x 5, Day 25, compared to temozolomide 5 mg/kg group): 94% | Median TTE [2]: 42.0 days | % TGD (vs Group 1) [2, 15]: 152% | Deaths NTR [2, 15]: 0 | Deaths TR [2, 15]: 0 | Median TTE [2, 15]: 28.7 days | Regressions CR [2, 15]: 0 | Regressions PR [2, 15]: 0 | Regressions TFS [2, 15]: 0 | T − C (TGD vs Group 1) [2, 15]: 17.3 days | % TGD (vs Group 1) [2, 16]: 268% | Deaths NTR [2, 16]: 0 | Deaths TR [2, 16]: 0 | Median TTE [2, 16]: 42 days | Regressions CR [2, 16]: 1 | Regressions PR [2, 16]: 0 | Regressions TFS [2, 16]: 1 | T − C (TGD vs Group 1) [2, 16]: 30.6 days | MTV (n) Day 46 (median tumor volume) ([2]; Group 6: temozolomide 100 mg/kg po qd x 5, excludes animals attaining tumor volume endpoint): 0 (1) mm3 | Deaths NTR (non-treatment-related death) (U87MG tumor fragments; [17]): 0 | Deaths TR (treatment-related death) (U87MG tumor fragments; [17]): 0 | MTV(n) Day 29 (median tumor volume) (U87MG tumor fragments; [17]): 410 (10) mm^3 | Regression CR (complete regression) (U87MG tumor fragments; [18]): 1 | Regression PR (partial regression) (U87MG tumor fragments; [18]): 0 | Deaths NTR (non-treatment-related death) (U87MG tumor fragments; [19]): 0 | Deaths TR (treatment-related death) (U87MG tumor fragments; [19]): 0 | Mean BW Nadir (lowest group mean body weight, as % change from Day 1) (U87MG tumor fragments; [19]): −2.5% | MTV(n) Day 29 (median tumor volume) (U87MG tumor fragments; [19]): 10 (8) mm^3 | Regression CR (complete regression) (U87MG tumor fragments; [20]): 7 | Regression PR (partial regression) (U87MG tumor fragments; [20]): 1 | inhibition in vivo at 100 mg/kg (U87MG tumor fragments; Mus musculus, U-87 MG, po, 864 h, read-out: % TGI (percent tumor growth inhibition, compared to Group 1)): 98% | Mean BW Nadir, day of nadir (U87MG tumor fragments; mouse, in vivo, po): Day 8 | % TGD (vs Group 1) [3, 21]: 276% | Deaths NTR [3, 21]: 0 | Deaths TR [3, 21]: 0 | MTV (n) Day 49 [3, 21]: 0 (2) mm^3 | Median TTE [3, 21]: 43.6 days | Regressions CR [3, 21]: 2 | Regressions PR [3, 21]: 3 | Regressions TFS [3, 21]: 2 | T − C (TGD vs Group 1) [3, 21]: 32.0 days | % TGD (vs Group 1) [3, 22]: 93% | Deaths NTR [3, 22]: 0 | Deaths TR [3, 22]: 0 | Median TTE [3, 22]: 22.4 days | Regressions CR [3, 22]: 0 | Regressions PR [3, 22]: 0 | Regressions TFS [3, 22]: 0 | T − C (TGD vs Group 1) [3, 22]: 10.8 days | MTV (n) Day 22 (mean tumor volume) ([4]; temozolomide 5 mg/kg p.o. qdx5): 825 mm^3 | No. of CR ([4]; temozolomide 5 mg/kg p.o. qdx5): 0 | No. of NTR ([4]; temozolomide 5 mg/kg p.o. qdx5): 0 | No. of PR ([4]; temozolomide 5 mg/kg p.o. qdx5): 0 | No. of TR ([4]; temozolomide 5 mg/kg p.o. qdx5): 0 | MTV (n) Day 22 (mean tumor volume) ([4]; temozolomide 5 mg/kg p.o. qdx5, listed as temozolomide): 825.1 ± 95.03 N = 115 mm^3 | No. of CR [4, 23]: 0 | No. of NTR [4, 23]: 0 | No. of PR [4, 23]: 1 | No. of TR [4, 23]: 0 | % TGI ([4]; temozolomide 100 mg/kg p.o. qdx5, Day 22, compared to temozolomide at 5 mg/kg): 88%
